{
  "source": "paper PMC3505660",
  "about": "“Application of Collagen-Model Triple-Helical Peptide-Amphiphiles for CD44-Targeted Drug Delivery Systems” (Journal of Drug Delivery, 2012)",
  "key": {"[1]": {"test_system": "BJ foreskin fibroblasts", "assay": "CellTiter-Glo Luminescent Cell Viability Assay (cytotoxicity), BJ", "type": "cell-based, human", "details": "BJ cells, [DOX] = 100 μM, 3 h exposure", "from_the_text": "(§1) The M14#5 and M14#11 human metastatic melanoma cell lines were generously provided by Dr. Barbara Mueller. The BJ foreskin fibroblasts […] were obtained from the American Type Culture Collection (ATCC) (Cat# CRL-2522). Cell media (Cat# MT10-013-CV) and trypan blue (Cat# ICN1691049) were obtained from Fisher Scientific or CellGro, and all reagents required for cell culture were purchased from Invitrogen. Cells were maintained in DMEM supplemented with 10% fetal bovine serum (Cat# 10437028), 50 units/mL penicillin, and 0.05 mg/mL streptomycin (Cat# 15140163). Cells were cultured with complete medium at 37°C in a humidified atmosphere of 5% CO2 in air. For all experiments cells were harvested from subconfluent (<80%) cultures using a trypsin-EDTA (Cat# 15400054) solution and then resuspended in fresh medium. Preparations of cells with a >90% viability, as determined by trypan blue exclusion, were used.\n(§2) The cytotoxicity of all liposomal systems used in this study, as well as free DOX, on the cells was determined using the CellTiter-Glo Luminescent Cell Viability Assay. The M14#5, M14#11, and BJ cells were plated on 96-well tissue cultured treated plates corning at a density of 5 × 10^3 cells per well and incubated for 24 h at 37°C and 5% CO2. The culture medium was then replaced with 100 μL of medium containing various concentrations of each liposomal system or free DOX. […]"}, "[2]": {"test_system": "M14#5 human metastatic melanoma cells", "assay": "CellTiter-Glo Luminescent Cell Viability Assay (cytotoxicity), M14#5", "type": "cell-based", "details": "M14#5 cells, [DOX] = 100 μM, 3 h exposure", "from_the_text": "as §1, §2"}, "[3]": {"design": "method as in PMID 8313389, PMID 7865538", "details": "cited from earlier work", "from_the_text": "Potential DOX delivery in vivo, however, is quite different than in vitro when one considers circulation times. […] In ..."}},
  "data": [
    {"smiles": "COc1cccc2c1C(=O)c1c(O)c3c(c(O)c1C2=O)C[C@@](O)(C(=O)CO)C[C@@H]3O[C@H]1C[C@H](N)[C@H](O)[C@H](C)O1", "note": "[free DOX, doxorubicin]", "values": [
      {"measurement": "cell viability", "setting": "[1]", "result": "50–60%"},
      {"measurement": "cell viability", "setting": "[2]", "result": "50–60%"},
      {"measurement": "clearance of free DOX relative to DOX encapsulated within PEGylated liposomes", "setting": "[3]", "result": 450, "unit": "times faster"}
    ]}
  ]
}
